Square brackets hold non-standard residues; d marks the D form. Ends that are not written are not given here. Met(O) = CS(=O)CC[C@H](N)C(=O)O; pS = N[C@@H](COP(=O)(O)O)C(=O)O
Key:
[1] = tested on: unexpanded lymphocyte cultures (CD8^+ T cells); assay: ICS for MHC-I-pP reactivity of lymphocyte cultures without expansion (Table 23, No Expansion); conditions: HH6
[2] = tested on: expanded lymphocyte cultures from deceased donor livers, cirrhotic livers and HCC; assay: ICS for MHC-I-pP reactivity of liver-derived lymphocyte cultures after phosphopeptide-specific expansion; format: cell-based, human; conditions: for ppCTL response, Deceased Donor Liver Do 2 / ppCTL response, Deceased Donor Liver Do 3 / ppCTL response, Deceased Donor Liver Do 4 / ppCTL response, Deceased Donor Liver Do 6 / ppCTL response, End-stage Liver Cirrhosis IHL 11 / ppCTL response, End-stage Liver Cirrhosis IHL 12 / ppCTL response, End-stage Liver Cirrhosis IHL 13 / ppCTL response, End-stage Liver Cirrhosis IHL 15 / ppCTL response, HCC Distal HCC 1 / ppCTL response, HCC Tumor HCC 1 / ppCTL response, HCC Distal HCC 4 / ppCTL response, HCC Distal HCC 9 / ppCTL response, HCC Tumor HCC 9 / ppCTL response, HCC Distal HCC 12: pP-specifically expanded culture; for ppCTL response, HCC Distal HCC 1: HCC 1 Distal; for ppCTL response, HCC Tumor HCC 1: HCC 1 Tumor; for ppCTL response, HCC Distal HCC 4: HCC 4 Distal; for ppCTL response, HCC Distal HCC 9: HCC 9 Distal; for ppCTL response, HCC Tumor HCC 9: HCC 9 Tumor; for ppCTL response, HCC Distal HCC 12: HCC 12 Distal
CD8^+ T cells (PBMCs) = assay: Intracellular cytokine staining (ICS) of PBMCs after 7 days of stimulation with MHC-I-pP (healthy donors, HH patients); format: cell-based, human; conditions: for Reactive CD8^+ T cell population, HH2: HH patient HH2; for Reactive CD8^+ T cell population, HH3: HH patient HH3; for Reactive CD8^+ T cell population, HH6: HH patient HH6; for Reactive CD8^+ T cell population, HH8: HH patient HH8; for Reactive CD8^+ T cell population, HD1: Healthy donor HD1; for Reactive CD8^+ T cell population, HD4: Healthy donor HD4; for Reactive CD8^+ T cell population, HD5: Healthy donor HD5
Procedure, shortened: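 PBMCs or liver lymphocytes from HLA-A*0201-positive healthy donors and hereditary hemochromatosis patients were stimulated for 7 days with HLA-A*0201-restricted phosphopeptides and no added cytokines. After exclusion of doublets and dead cells with a fixable viability dye, CD3^+CD8^+ cells were analysed by intracellular staining for IFN-γ and TNF-α, plus CD107a where needed.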

[3] = tested on: expanded TIL / IHL cultures; assay: ICS for MHC-I-pP reactivity of liver-derived lymphocyte cultures after unspecific rapid expansion protocol (REP); format: cell-based, human

Substance	Reactive CD8^+ T cells, No Expansion, HH6 [1]	Reactive CD8^+ T cells, pP-specific Expansion, Do2 [2]	Reactive CD8^+ T cells, pP-specific Expansion, Do4 [2]	Reactive CD8^+ T cells, pP-specific Expansion, HH6 [2]	ppCTL response, Deceased Donor Liver Do 2 [2]	ppCTL response, Deceased Donor Liver Do 3 [2]	ppCTL response, Deceased Donor Liver Do 4 [2]	ppCTL response, Deceased Donor Liver Do 6 [2]	ppCTL response, End-stage Liver Cirrhosis IHL 11 [2]	ppCTL response, End-stage Liver Cirrhosis IHL 12 [2]	ppCTL response, End-stage Liver Cirrhosis IHL 13 [2]	ppCTL response, End-stage Liver Cirrhosis IHL 15 [2]	ppCTL response, HCC Distal HCC 1 [2]	ppCTL response, HCC Tumor HCC 1 [2]	ppCTL response, HCC Distal HCC 4 [2]	ppCTL response, HCC Distal HCC 9 [2]	ppCTL response, HCC Tumor HCC 9 [2]	ppCTL response, HCC Distal HCC 12 [2]	Reactive CD8^+ T cell population, HH2 (CD8^+ T cells (PBMCs))	Reactive CD8^+ T cell population, HH3 (CD8^+ T cells (PBMCs))	further results
AVVsPPALHNA: BRD4 phosphopeptide, HLA-A*0201 (AVV[pS]PPALHNA; listed as Homo sapiens)	2 (2.5-5.0% reactive CD8^-+ T cells)	0 (<0.25% reactive CD8^-+ T cells)	0 (<0.25% reactive CD8^-+ T cells)	2 (2.5-5.0% reactive CD8^-+ T cells)	0 (<0.25% reactive CD8-+ T cells)	0 (<0.25% reactive CD8-+ T cells)	0 (<0.25% reactive CD8-+ T cells)	0 (<0.25% reactive CD8-+ T cells)	0 (<0.25% reactive CD8-+ T cells)	0 (<0.25% reactive CD8-+ T cells)	0 (<0.25% reactive CD8-+ T cells)	0 (<0.25% reactive CD8-+ T cells)	0 (<0.25% reactive CD8-+ T cells)	0 (<0.25% reactive CD8-+ T cells)	0 (<0.25% reactive CD8-+ T cells)	0 (<0.25% reactive CD8-+ T cells)	1 (0.25-2.5% reactive CD8-+ T cells)	0 (<0.25% reactive CD8-+ T cells)	0 (<0.25% reactive CD8^-+ T cells)	0 (<0.25% reactive CD8^-+ T cells)	Reactive CD8^+ T cell population, HH6 (CD8^+ T cells (PBMCs)): 2 (2.5-5.0% reactive CD8^-+ T cells); Reactive CD8^+ T cell population, HH8 (CD8^+ T cells (PBMCs)): 0 (<0.25% reactive CD8^-+ T cells); Reactive CD8^+ T cell population, HD1 (CD8^+ T cells (PBMCs)): 0 (<0.25% reactive CD8^-+ T cells); Reactive CD8^+ T cell population, HD4 (CD8^+ T cells (PBMCs)): 0 (<0.25% reactive CD8^-+ T cells); Reactive CD8^+ T cell population, HD5 (CD8^+ T cells (PBMCs)): 0 (<0.25% reactive CD8^-+ T cells); Reactive CD8^+ T cells, Non-specific Expansion, Do2 [3]: 0 (<0.25% reactive CD8^-+ T cells); Reactive CD8^+ T cells, Non-specific Expansion, Do4 [3]: 0 (<0.25% reactive CD8^-+ T cells); Reactive CD8^+ T cells, Non-specific Expansion, HH6 [3]: 0 (<0.25% reactive CD8^-+ T cells)
SImsPEIQL: CIC phosphopeptide, HLA-A*0201 (SI[Met(O)][pS]PEIQL; listed as Homo sapiens)	0 (<0.25% reactive CD8^-+ T cells)	0 (<0.25% reactive CD8^-+ T cells)	0 (<0.25% reactive CD8^-+ T cells)	2 (2.5-5.0% reactive CD8^-+ T cells)	0 (<0.25% reactive CD8-+ T cells)	0 (<0.25% reactive CD8-+ T cells)	0 (<0.25% reactive CD8-+ T cells)	0 (<0.25% reactive CD8-+ T cells)	0 (<0.25% reactive CD8-+ T cells)	0 (<0.25% reactive CD8-+ T cells)	0 (<0.25% reactive CD8-+ T cells)	0 (<0.25% reactive CD8-+ T cells)	0 (<0.25% reactive CD8-+ T cells)	0 (<0.25% reactive CD8-+ T cells)	0 (<0.25% reactive CD8-+ T cells)	0 (<0.25% reactive CD8-+ T cells)	0 (<0.25% reactive CD8-+ T cells)	0 (<0.25% reactive CD8-+ T cells)	1 (0.25-2.5% reactive CD8^-+ T cells)	0 (<0.25% reactive CD8^-+ T cells)	Reactive CD8^+ T cell population, HH6 (CD8^+ T cells (PBMCs)): 0 (<0.25% reactive CD8^-+ T cells); Reactive CD8^+ T cell population, HH8 (CD8^+ T cells (PBMCs)): 0 (<0.25% reactive CD8^-+ T cells); Reactive CD8^+ T cell population, HD1 (CD8^+ T cells (PBMCs)): 0 (<0.25% reactive CD8^-+ T cells); Reactive CD8^+ T cell population, HD4 (CD8^+ T cells (PBMCs)): 0 (<0.25% reactive CD8^-+ T cells); Reactive CD8^+ T cell population, HD5 (CD8^+ T cells (PBMCs)): 0 (<0.25% reactive CD8^-+ T cells); Reactive CD8^+ T cells, Non-specific Expansion, Do2 [3]: 0 (<0.25% reactive CD8^-+ T cells); Reactive CD8^+ T cells, Non-specific Expansion, Do4 [3]: 0 (<0.25% reactive CD8^-+ T cells); Reactive CD8^+ T cells, Non-specific Expansion, HH6 [3]: 0 (<0.25% reactive CD8^-+ T cells)
PmVTLsLNL (P[Met(O)]VTL[pS]LNL; listed as Homo sapiens)	0 (<0.25% reactive CD8^-+ T cells)	2 (2.5-5.0% reactive CD8^-+ T cells)	1 (0.25-2.5% reactive CD8^-+ T cells)	0 (<0.25% reactive CD8^-+ T cells)	2 (2.5-5.0% reactive CD8-+ T cells)	0 (<0.25% reactive CD8-+ T cells)	2 (2.5-5.0% reactive CD8-+ T cells)	1 (0.25-2.5% reactive CD8-+ T cells)	0 (<0.25% reactive CD8-+ T cells)	0 (<0.25% reactive CD8-+ T cells)	0 (<0.25% reactive CD8-+ T cells)	0 (<0.25% reactive CD8-+ T cells)	0 (<0.25% reactive CD8-+ T cells)	0 (<0.25% reactive CD8-+ T cells)	0 (<0.25% reactive CD8-+ T cells)	0 (<0.25% reactive CD8-+ T cells)	0 (<0.25% reactive CD8-+ T cells)	0 (<0.25% reactive CD8-+ T cells)	0 (<0.25% reactive CD8^-+ T cells)	0 (<0.25% reactive CD8^-+ T cells)	Reactive CD8^+ T cell population, HH6 (CD8^+ T cells (PBMCs)): 0 (<0.25% reactive CD8^-+ T cells); Reactive CD8^+ T cell population, HH8 (CD8^+ T cells (PBMCs)): 0 (<0.25% reactive CD8^-+ T cells); Reactive CD8^+ T cell population, HD1 (CD8^+ T cells (PBMCs)): 0 (<0.25% reactive CD8^-+ T cells); Reactive CD8^+ T cell population, HD4 (CD8^+ T cells (PBMCs)): 0 (<0.25% reactive CD8^-+ T cells); Reactive CD8^+ T cell population, HD5 (CD8^+ T cells (PBMCs)): 0 (<0.25% reactive CD8^-+ T cells); Reactive CD8^+ T cells, Non-specific Expansion, Do2 [3]: 0 (<0.25% reactive CD8^-+ T cells); Reactive CD8^+ T cells, Non-specific Expansion, Do4 [3]: 1 (0.25-2.5% reactive CD8^-+ T cells); Reactive CD8^+ T cells, Non-specific Expansion, HH6 [3]: 0 (<0.25% reactive CD8^-+ T cells)
